Data taken from patent US8883856B2, “Compositions and methods for the treatment of inflammatory diseases using topoisomerase inhibitors” (priority 2000, dated 2014).

What was measured:
stromelycin gene = experiment: IL-1 induced stromelycin gene expression in chondrocytes; format: cell-based, calf
Description: This assay measures the levels of RNA for the two metalloproteinases, collagenase and stromelysin. Over-expression of these genes results in excessive synthesis and secretion of these two enzymes from articular chondrocytes and may represent part of the pathophysiology of rheumatoid arthritis. Agents that inhibit over-expression of collagenase and stromelysin can be antiarthritc agents. […] Proteoglycan gene expression is part of the normal physiology of chondrocytes.
Primary chondrocyte culture was freshly isolated from calf cartilage. The cells were plated (at 2.5×10^6/mL) in 100×20 mm culture dishes and incubated in Ham's F12 medium containing 5% fetal bovine serum (FBS) overnight at 37° C. The cells were starved with serum-free medium overnight. […] Then IL-1 (20 ng/mL) was added to each plate and the plates were incubated for an additional 18 hours. Total RNA was isolated by the acidified guanidine isothiocyanate method and subjected to electrophoresis on a denatured gel. Denatured RNA samples (15 ug) were analyzed by gel electrophoresis in a 1% denaturing gel, transferred to a nylon membrane, and hybridized respectively with the ^32P-labelled collagenase cDNA probe, ^32P-labelled stromelycin cDNA probe, ^32P-labelled proteoglycan cDNA probe and ^32P-labelled glyceraldehyde phosphate dehydrogenase (PAGDH) cDNA. The PAGDH levels acted as an internal standard to ensure roughly equal loading. The experimental results on X-ray films were scanned and analyzed with HP ScanJet.

[1] = system: synoviocytes (HIG.82 rabbit); experiment: MTT proliferation/cytotoxicity assay, synoviocytes; format: cell-based; settings: Oryctolagus cuniculus; 48 hours exposure; read-out: inhibitory concentration that gave 50% effect on proliferation (IC50), synoviocytes
Procedure: (§1) Proliferation was determined using the MTT proliferation/cytotoxicity assay.
(§2) On day one, 1500-2000 smooth muscle cells (A7r5 rat embryonic thoracic aorta) or synoviocytes (HIG.82 rabbit) were plated per well on a 96-well plate, leaving the first column free of cells (blank). The plate was placed back into the 37° C., CO2 incubator. The following day camptothecin was added at various concentrations. No drugs were added to the first column (blank) and the second column (untreated column) for control. The cells were exposed for 24, 48, and 72 hours. At the end of the exposure period, 50 μl of dimethylthiazol diphenyltetrazolium bromide salt (MTT) dissolved in media was added and allowed to incubate for 4 hours at 37° C. The medium was then aspirated and 200 μl of dimethyl sulfoxide was added. The plate was agitated for 30 minutes and the absorbance read at 562 nm. The optical density measurement was converted to number of cells using a standard plot of optical density with known number of cells and cell viability was expressed as % growth (this value is the % of the control cells).

[2] = system: chorioallantoic membrane of the chick embryo; experiment: Angiogenesis in the chick chorioallantoic membrane (CAM assay); format: in vivo
Description: Sheets of sterile waxed paper were placed onto the window that was created in the air space and were used to prevent contamination and dehydration of the egg contents. These sheets, measuring 4 cm×4 cm, were sterilized by spraying them with 70% ethanol and allowing them to dry in the laminar flow hood. […] Using 70% ethanol and Kimwipes, the entire eggshell was wiped down to help clean and sanitize the outside of the egg. Inside a laminar flow hood, the egg was held with the blunt side up and a hole was made in the blunt end of the egg by carefully cracking the shell with the end of forceps. The shell remnants were gently removed with forceps to form a hole in the blunt end. This circular hole was made as large as 2 to 3 cm in diameter without damaging the inner membrane. Once the hole was created in the shell, the inner shell membrane (which houses the egg contents) was gently torn and removed using the forceps, taking care not to damage the chorioallantoic membrane (CAM) (which houses the yolk and developing chick embryo). The hole was then covered with the sheet of sterilized parafilm wax paper by gently stretching the parafilm and then placing it around the hole. The egg was then placed in the egg rack in the incubator (37° C.) and positioned in such a way as to prevent rotation. After 6 days each egg was removed one by one from the incubator (blunt side up), and the parafilm covering the window was removed for direct access to the CAM, which originates from the hind gut of the embryo. The drug-loaded polymer was placed onto the growing capillary bed of the CAM. The egg contents were then resealed with the parafilm sheet and placed back into the 37° C. incubator. […] The values of the avascular scale describe the following: […]

[3] = In vitro drug release from polymeric formulations; format: physicochemical
[4] = system: smooth muscle cells (A7r5 rat embryonic thoracic aorta); experiment: MTT proliferation/cytotoxicity assay, smooth muscle cells; format: cell-based; settings: A7R5, 48 hours exposure, read-out: inhibitory concentration that gave 50% effect on proliferation (IC50), smooth muscle cells
Procedure: as §1, §2

[5] = 2.0% w/w in PCL pellet, 48 hours

COc1cccc2c1C(=O)c1c(O)c3c(c(O)c1C2=O)C[C@@](O)(C(=O)CO)C[C@@H]3O[C@H]1C[C@H](N)[C@H](O)[C@H](C)O1 [doxorubicin]
IL-1 induced stromelycin gene expression (stromelycin gene; 1×10^−5 M): completely inhibited | stromelysin expression (stromelycin gene; 1×10^−6 M): partial inhibition | IC50 [1]: 100 nM | number of eggs (CAM's) with antiangiogenic activity Partial (score 1-2) ([2]; 0.5% w/w in PCL pellet, 48 hours): 5 | number of eggs (CAM's) with antiangiogenic activity None (score 0) [2, 5]: 1 | number of eggs (CAM's) with antiangiogenic activity Partial (score 1-2) [2, 5]: 20 | number of eggs (CAM's) with antiangiogenic activity Partial (score 1-2) ([2]; 4.0% w/w in PCL pellet, 48 hours): 4 | inhibition of angiogenesis in the CAM, in words ([2]; 5% (w/w to PCL)): partial to full inhibition of angiogenesis | number of eggs (CAM's) with antiangiogenic activity Partial (score 1-2) ([2]; 5.0% w/w in PCL pellet, 48 hours): 3 | inhibition of angiogenesis in the CAM, in words ([2]; summary over all concentrations tested in PCL or PCL-MePEG pellets): partially inhibited angiogenesis in all but one CAM | drug release profile ([3]; ethylene vinyl acetate films, PBS pH 7.4, 37° C.): initial burst of drug release followed by a slow sustained release | drug release profile ([3]; polycaprolactone paste, PBS, 37° C.): initial burst of drug release followed by a slow sustained release | IC50 [4]: 600 nM
